Assay results taken from EP0099766A1, “1-3-Dihydro 4-(1-hydroxy-2-amino-ethyl)-2H-indol-2-one derivatives, their salts, process for their preparation, their use as medicines and compositions containing them” (ROUSSEL-UCLAF, priority 1982, dated 1984).

Experiments:
souris = conditions: mouse, in vivo, po, 11520 min
Text: On a évalué les doses létales DLO des différents composés testés après administration par voie orale chez la souris.
On appelle DLO la dose maximale ne provoquant aucune mortalité en 8 jours.

[1] = test system: oédème plantaire provoqué par la carraghénine chez le rat; assay: Anti-inflammatory activity: carrageenan-induced plantar oedema; type: in vivo; conditions: dose 0,4 mg/kg oral, given simultaneously with carrageenan; rat paw volume versus controls
Text: L'activité anti-inflammatoire a été déterminée sur le test de l'oédème plantaire provoqué par la carraghénine chez le rat.
On administre, à des rats mâles pesant de 130 à 150 g, 0,05 cm3 d'une suspension stérile à 1% de carraghénine dans l'articulation tibio-tarsienne d'une patte postérieure.
Simultanément, on administre le produit à étudier dans une suspension de carboxyméthylcellulose à 0,25% et de Tween à 0,02% par voie orale.
Le volume de la patte est mesuré avant l'administration, puis 2 heures, 4 heures, 6 heures, 8 heures et 24 heures après.
L'intensité de l'inflammation est maxima 4 à 6 heures après l'injection de carraghénine. La différence du volume des pattes des animaux traités et des témoins met en évidence l'action anti inflammatoire du médicament.

[2] = test system: rats mâles Sprague-Dawley; assay: Anti-ulcer activity: Shay method modified by Guth (pylorus ligation plus aspirin/HCl gastric lesions); type: in vivo; conditions: dose 0,4 mg/kg per os one hour before pylorus ligation; aspirin 200 mg/kg per os; Sprague-Dawley rat; mean ulcer score
Protocol: L'essai est effectué selon la méthode de Shay modifiée par GUTH (GUTH, P.H. et coll, Topical aspirin plus HCl gastric lesions in the rat. Gastroenterology 1979,76, 88-93.) Des rats mâles Sprague-Dawley d'un poids voisin de 250 g, à jeun depuis 48 heures sauf boisson, ont été utilisés. On pratique sous légère anesthésie à l'halothane, la ligature du pylore et une . heure plus tard, on administre l'aspirine per os à la dose de 200 mg/kg, en suspension dans la carboxyméthylcellulose à 0,25% renfermant 15% d'acide chlorhydrique N. Deux heures plus tard, on sacrifie les animaux, prélève et examine les estomacs. Chaque lésion ulcéreuse est cotée de la façon suivante :
La somme des cotations est calculée pour chaque estomac, et le score moyen est établi.pour chaque lot.
Les substances à étudier sont administrées per os une heure avant la ligature.

CCNCC(O)c1cccc2c1CC(=O)N2 (stereo not shown) [compound 7, Chlorhydratede 1,3-dugtdri 4-/(1-hydroxy 2-éthyl-amino) éthyl/ 2H-indol-2-one]
DL0 (souris): > 400 mg/kg

CC(C)NCC(O)c1cccc2c1CC(=O)N2 (stereo not shown) [exemple 1, 1,3-dihydro 4-/2-(1-méthyléthylamino) 1-hydroxy éthyl/ 2H-indol-2-one]
DL0 (souris): 200 mg/kg | protège les animaux traités (activité anti-inflammatoire) [1]: 61%

CNCC(O)c1cccc2c1CC(=O)N2 (stereo not shown) [compound 3, 1,3-dihydro 4-(1-hydroxy 2-(méthylamino)éthyl) 2H-indol-2-one]
DL0 (souris): > 400 mg/kg

CCCNCC(O)c1cccc2c1CC(=O)N2 (stereo not shown) [exemple 2, 1,3-dihydro 4-/1-hydroxy 2-(propylamino)éthyl/ 2H-indol-2-one]
protège les animaux traités (activité antiulcéreuse) [2]: 60% | DL0 (souris): 200 mg/kg

O=C1Cc2c(cccc2C(O)CNCC2CC2)N1 (stereo not shown) [exemple 5, Chlorhydratede 1,3-dihydro 4-/1-hydroxy 2-(cyclo-propylméthylamino) éthyl/ 2H-indol-2-one]
DL0 (souris): 200 mg/kg
